The results in this text go back to patent publication US10464947B2 (Incyte Corporation, priority 2013, dated 2019).

Structures are written as SMILES.

For one test, the system named is KMS.12.BM cells. Description: KMS.12.BM Cell Viability Assay (Example B1). The settings on record: Homo sapiens, 72 h, 3 days, Cell Titer-GLO, read-out: KMS cellular IC50. It counts as cell-based, human. The essentials: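 KMS.12.BM human myeloma cells, 5000 cells/well in RPMI with 10% FBS, exposed to a compound concentration range for 3 days. Viable cells measured by ATP-based Cell Titer-GLO luminescence after 10 min at room temperature.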
A general note: In ATP-based viability assays light output follows the ATP content of the culture.
In the case of `CC(=O)N(C)[C@@H]1CCN(c2nc3ccc(-c4c(C)noc4C)c4c3n2[C@@H](c2ccccn2)CO4)C1` [Example 222, N-{(3R)-1-[(4S)-7-(3,5-dimethylisoxazol-4-yl)-4-pyridin-2-yl-4,5-dihydroimidazo[1,5,4-de][1,4]benzoxazin-2-yl]pyrrolidin-3-yl}-N-methylacetamide], the IC50 (as a rule, the point on the concentration scale where inhibition reaches its midpoint) is below 1000 nM. The same measure, in the same setting: then `Cc1noc(C)c1-c1ccc2nc(N3CC(NC(=O)C(C)C)C3)n3c2c1OC[C@@H]3c1ccccn1` [Example 233, N-{1-[(4S)-7-(3,5-dimethylisoxazol-4-yl)-4-pyridin-2-yl-4,5-dihydroimidazo[1,5,4-de][1,4]benzoxazin-2-yl]azetidin-3-yl}-2-methylpropanamide], with below 1000 nM. Still for that read-out and setting: to `C=Cc1nc2ccc(-c3c(C)noc3C)c3c2n1[C@@H](c1ccccn1)CO3` [Example 88, (4S)-7-(3,5-Dimethylisoxazol-4-yl)-4-pyridin-2-yl-2-vinyl-4,5-dihydroimidazo[1,5,4-de][1,4]benzoxazine] belongs below 1000 nM.

Regarding `Cc1noc(C)c1-c1ccc2nc(N3CC[C@@H](N(C)C(=O)CC#N)C3)n3c2c1OC[C@@H]3c1ccccn1` [Example 152, 2-Cyano-N-{(3R)-1-[(4S)-7-(3,5-dimethylisoxazol-4-yl)-4-pyridin-2-yl-4,5-dihydroimidazo[1,5,4-de][1,4]benzoxazin-2-yl]pyrrolidin-3-yl}-N-methylacetamide], the IC50 was below 1000 nM. The same measure, in the same setting: then `Cc1noc(C)c1-c1ccc2nc(N3CCCN(S(C)(=O)=O)CC3)n3c2c1OC[C@@H]3c1ccccn1` [Example 149, (4S)-7-(3,5-Dimethylisoxazol-4-yl)-2-[4-(methylsulfonyl)-1,4-diazepan-1-yl]-4-pyridin-2-yl-4,5-dihydroimidazo[1,5,4-de][1,4]benzoxazine], with below 1000 nM; and `Cc1noc(C)c1-c1ccc2ncn3c2c1OC[C@@H]3c1ccccn1` [Example 92, (4S)-7-(3,5-Dimethylisoxazol-4-yl)-4-pyridin-2-yl-4,5-dihydroimidazo[1,5,4-de][1,4]benzoxazine], with below 1000 nM. With `COc1ccc(CNCc2cc(-c3c(C)noc3C)c3c4c2[nH]c(=O)n4C(c2ccccn2)CO3)cc1` (stereo not drawn) [Example 263, 7-(3,5-dimethylisoxazol-4-yl)-9-{[(4-methoxybenzyl)amino]methyl}-4-pyridin-2-yl-4,5-dihydroimidazo[1,5,4-de][1,4]benzoxazin-2(1H)-one], the concentration for half-maximal inhibition (IC50) was below 1000 nM. The same measure, in the same setting: to `Cc1noc(C)c1-c1cc(CO)c2[nH]c(=O)n3c2c1OCC3c1ccccn1` (stereo not drawn) [Example 254, 7-(3,5-Dimethylisoxazol-4-yl)-9-(hydroxymethyl)-4-pyridin-2-yl-4,5-dihydroimidazo[1,5,4-de][1,4]benzoxazin-2(1H)-one] belongs below 1000 nM.

Take `Cc1noc(C)c1-c1ccc2nc(N(C)C)n3c2c1OCC3c1ccccn1` (stereo not drawn) [Example 187, 7-(3,5-dimethylisoxazol-4-yl)-N,N-dimethyl-4-pyridin-2-yl-4,5-dihydroimidazo[1,5,4-de][1,4]benzoxazin-2-amine]: the half-inhibitory concentration (IC50) was below 1000 nM. As to `Cc1noc(C)c1-c1ccc2nc(N3CCN(S(C)(=O)=O)CC3)n3c2c1OC[C@@H]3c1ccccn1` [Example 173, (4S)-7-(3,5-dimethylisoxazol-4-yl)-2-[4-(methylsulfonyl)piperazin-1-yl]-4-pyridin-2-yl-4,5-dihydroimidazo[1,5,4-de][1,4]benzoxazine], the IC50 is below 1000 nM.

As for `Cc1noc(C)c1-c1ccc2nc(N3CCC3)n3c2c1OC[C@@H]3c1ccccn1` [Example 164, (4S)-2-azetidin-1-yl-7-(3,5-dimethylisoxazol-4-yl)-4-pyridin-2-yl-4,5-dihydroimidazo[1,5,4-de][1,4]benzoxazine], the 50% inhibitory concentration (IC50) is below 1000 nM.

As to `Cc1noc(C)c1-c1ccc2nc(N3CC(NS(C)(=O)=O)C3)n3c2c1OC[C@@H]3c1ccccn1` [Example 237, N-{1-[(4S)-7-(3,5-dimethylisoxazol-4-yl)-4-pyridin-2-yl-4,5-dihydroimidazo[1,5,4-de][1,4]benzoxazin-2-yl]azetidin-3-yl}methanesulfonamide], the IC50 was below 1000 nM.

Take `Cc1noc(C)c1-c1cc(C#N)c2[nH]c(=O)n3c2c1OCC3c1ccccc1` (stereo not drawn) [Example 42, 7-(3,5-Dimethylisoxazol-4-yl)-2-oxo-4-phenyl-1,2,4,5-tetrahydroimidazo[1,5,4-de][1,4]benzoxazine-9-carbonitrile]: the IC50 was below 1000 nM. Turning to `Cc1noc(C)c1-c1ccc2nc(N3CC[C@@H](NC(=O)N4CCOCC4)C3)n3c2c1OC[C@@H]3c1ccccn1` [Example 153, N-{(3R)-1-[(4S)-7-(3,5-Dimethylisoxazol-4-yl)-4-pyridin-2-yl-4,5-dihydroimidazo[1,5,4-de][1,4]benzoxazin-2-yl]pyrrolidin-3-yl}morpholine-4-carboxamide], the IC50 was below 1000 nM. Same read-out and setting: to `Cc1noc(C)c1-c1ccc2nc(N3CC(NS(=O)(=O)C(C)C)C3)n3c2c1OC[C@@H]3c1ccccn1` [Example 239, N-{1-[(4S)-7-(3,5-dimethylisoxazol-4-yl)-4-pyridin-2-yl-4,5-dihydroimidazo[1,5,4-de][1,4]benzoxazin-2-yl]azetidin-3-yl}propane-2-sulfonamide] belongs below 1000 nM; to `Cc1noc(C)c1-c1cc(-c2ccnc(O)c2)c2[nH]c(=O)n3c2c1OC[C@@H]3c1ccccn1` [Example 260, (4S)-7-(3,5-dimethylisoxazol-4-yl)-9-(2-hydroxypyridin-4-yl)-4-pyridin-2-yl-4,5-dihydroimidazo[1,5,4-de][1,4]benzoxazin-2(1H)-one], 1000 to 10000 nM; to `Cc1noc(C)c1-c1ccc2nc(N3CCC(O)C3)n3c2c1OCC3c1ccccc1` (stereo not drawn) [Example 55, 1-[7-(3,5-Dimethylisoxazol-4-yl)-4-phenyl-4,5-dihydroimidazo[1,5,4-de][1,4]benzoxazin-2-yl]pyrrolidin-3-ol], below 1000 nM. On the same count and under the same terms, then `Cc1noc(C)c1-c1ccc2ncn3c2c1OCC3c1ccccc1` (stereo not drawn) [Example 39, 7-(3,5-Dimethylisoxazol-4-yl)-4-phenyl-4,5-dihydroimidazo[1,5,4-de][1,4]benzoxazine], with below 1000 nM; and `Cc1noc(C)c1-c1ccc2[nH]c(=O)n3c2c1OCC3c1ccccc1` (stereo not drawn) [Example 1, 7-(3,5-Dimethylisoxazol-4-yl)-4-phenyl-4,5-dihydroimidazo[1,5,4-de][1,4]benzoxazin-2(1H)-one], with below 1000 nM. Still for that read-out and setting: to `Cc1noc(C)c1-c1ccc2nc(N3CCCC3)n3c2c1OCC3c1ccccc1` (stereo not drawn) [Example 54, 7-(3,5-Dimethylisoxazol-4-yl)-4-phenyl-2-pyrrolidin-1-yl-4,5-dihydroimidazo[1,5,4-de][1,4]benzoxazine] belongs below 1000 nM.

`Cc1noc(C)c1-c1ccc2nc(N3CC[C@@H](N(C)S(C)(=O)=O)C3)n3c2c1OC[C@@H]3c1ccccn1` [Example 220, N-{(3R)-1-[(4S)-7-(3,5-dimethylisoxazol-4-yl)-4-pyridin-2-yl-4,5-dihydroimidazo[1,5,4-de][1,4]benzoxazin-2-yl]pyrrolidin-3-yl}-N-methylmethanesulfonamide]: the IC50 is below 1000 nM.

Take `Cc1noc(C)c1-c1ccc2nc(N3CC(O)C3)n3c2c1OCC3c1ccccc1` (stereo not drawn) [Example 59]: the IC50 was below 1000 nM. Still for that read-out and setting: to `Cc1noc(C)c1-c1ccc2nc(N3CCN4CCC[C@@H]4C3)n3c2c1OC[C@@H]3c1ccccn1` [Example 193B, (4S)-7-(3,5-dimethylisoxazol-4-yl)-2-[(8aR)-hexahydropyrrolo[1,2-a]pyrazin-2(1H)-yl]-4-pyridin-2-yl-4,5-dihydroimidazo[1,5,4-de][1,4]benzoxazine] belongs below 1000 nM; to `CCOC(=O)C1Oc2c(-c3c(C)noc3C)ccc3[nH]c(=O)n(c23)C1c1ccccc1` (stereo not drawn) [Example 23, Ethyl 7-(3,5-dimethylisoxazol-4-yl)-2-oxo-4-phenyl-1,2,4,5-tetrahydroimidazo[1,5,4-de][1,4]benzoxazine-5-carboxylate], below 1000 nM. Still for that read-out and setting: to `CC(=O)N1CCCN(c2nc3ccc(-c4c(C)noc4C)c4c3n2[C@@H](c2ccccn2)CO4)CC1` [Example 148, (4S)-2-(4-Acetyl-1,4-diazepan-1-yl)-7-(3,5-dimethylisoxazol-4-yl)-4-pyridin-2-yl-4,5-dihydroimidazo[1,5,4-de][1,4]benzoxazine] belongs below 1000 nM.

In the case of `CCS(=O)(=O)N[C@@H]1CCN(c2nc3ccc(-c4c(C)noc4C)c4c3n2[C@@H](c2ccccn2)CO4)C1` [Example 214, N-{(3R)-1-[(4S)-7-(3,5-dimethylisoxazol-4-yl)-4-pyridin-2-yl-4,5-dihydroimidazo[1,5,4-de][1,4]benzoxazin-2-yl]pyrrolidin-3-yl}ethanesulfonamide], the IC50 was below 1000 nM. Same read-out and setting: to `COCCN1CCN(c2nc3ccc(-c4c(C)noc4C)c4c3n2[C@@H](c2ccccn2)CO4)CC1` [Example 184, (4S)-7-(3,5-dimethylisoxazol-4-yl)-2-[4-(2-methoxyethyl)piperazin-1-yl]-4-pyridin-2-yl-4,5-dihydroimidazo[1,5,4-de][1,4]benzoxazine] belongs below 1000 nM.

Still in this test, the particulars now being: Homo sapiens, KMS-12-BM, 72 h, 3 days, Cell Titer-GLO, read-out: KMS cellular IC50.
Regarding `Cc1noc(C)c1-c1ccc2[nH]c(=O)n3c2c1OC(C)(C)C3c1ccccn1` (single isomer, unassigned) [Example 61A, 7-(3,5-Dimethylisoxazol-4-yl)-5,5-dimethyl-4-pyridin-2-yl-4,5-dihydroimidazo[1,5,4-de][1,4]benzoxazin-2(1H)-one], the IC50 is below 1000 nM. Same read-out and setting: to `Cc1noc(C)c1-c1cc(F)c2[nH]c(=O)n3c2c1OCC3c1ccccn1` (stereo not drawn) [Example 265B, 7-(3,5-dimethylisoxazol-4-yl)-9-fluoro-4-pyridin-2-yl-4,5-dihydroimidazo[1,5,4-de][1,4]benzoxazin-2(1H)-one] belongs below 1000 nM; to `Cc1noc(C)c1-c1ccc2nc(NC(C)(C)CO)n3c2c1OCC3c1ccccc1` (stereo not drawn) [Example 33, 2-{[7-(3,5-Dimethylisoxazol-4-yl)-4-phenyl-4,5-dihydroimidazo[1,5,4-de][1,4]benzoxazin-2-yl]amino}-2-methylpropan-1-ol], 1000 to 10000 nM.
